Measurements as given in patent publication US20240182407A1, “QUINOLINE COMPOUND SALT OR CRYSTAL FORM, PREPARATION METHOD THEREFOR, AND APPLICATION THEREOF” (Nanjing Zenshine Pharmaceuticals Co., Ltd., priority 2021, published 2024).
Where “and” joins values, the source holds several entries; their conditions need not be identical. Equal entries are not always repeated.

How the values were obtained:
[1] = biological target: T1, PI3Kα (Mus musculus, UniProt P42337); assay: Akt phosphorylation in C2Cl2 cells stimulated by IGF-1 (AlphaLISA); conditions: phosphorylation of Akt, C2C12 cells, read-out: IC50 PI3Kα Cell-based
T1 construct: host or cells: C2C12 cells
Protocol: In addition, taking Sample 6 as an example, the inhibitory effects thereof on PI3Kα, PI3Kβ, PI3Kγ and PI3Kδ in corresponding cells were determined. The activity of PI3Kα was detected by the phosphorylation level of Akt in C2Cl2 cells stimulated by IGF-1, the activity of PI3Kβ was detected by the phosphorylation level of Akt in PC-3 cells stimulated by LPA, the activity of PI3Kγ was detected by the phosphorylation level of Akt in Raw264.7 cells stimulated by c5α, and the activity of PI3Kδ was detected by the phosphorylation level of Akt in Raji cells stimulated by IgM. The phosphorylation level of Akt in cells was determined by means of AlphaLISA technique from PerkinElemer.
The C2C12 cells, PC-3 cells, Raw264.7 cells and Raji cells were all purchased from ATCC.

[2] = Crystal form stability under high humidity (XRPD); assay type: physicochemical; conditions: RT/92.5% RH, 11 days
Source text: In addition, the stability of p-toluenesulfonate crystal form I (Sample 8) under grinding and high humidity conditions was investigated.
For example, the p-toluenesulfonate crystal form I sample was placed at RT/92.5% RH for 11 days and then measured by XRPD.

[3] = test system: human-derived lymphoma DoHH-2 cell line; assay: Human-derived lymphoma DoHH-2 subcutaneous xenograft in CB17/SCID female immunodeficient mice; assay type: in vivo, mouse; conditions: Day 24
Protocol: In Example 8, the anti-tumor effects of p-toluenesulfonate of Compound A at various dosages by intragastric administration on human-derived lymphoma DoHH-2 cell line subcutaneous transplantation CB17/SCID female immunodeficient mouse model were evaluated.
7-9-week-old CB17/SCID female immunodeficient mice were subcutaneously inoculated with […] DoHH-2 cells to establish a subcutaneous human lymphoma xenograft tumor model. When the average tumor volume in the mice reached 68 mm^3, the mice were randomly divided into groups and dosed on the day of grouping. The treatment method for each treatment group and vehicle control group was as follows:
p-toluenesulfonate of Compound A (Sample 6), given 100 mg/kg (p.o. QD) group, once daily, for 25 days (days 0-24);
p-toluenesulfonate of Compound A (Sample 6), given 30 mg/kg (p.o. QD) group, once daily, for 25 days (days 0-24);
positive treatment group (Duvelisib, purchased from Shanghai Lollane biological technology Co., Ltd.), given 50 mg/kg (p.o. BID) twice daily with an interval of 12 h, for 24 days; and
vehicle control group (5% DMSO/40% PEG400/55% water, by volume) (p.o. QD), given once daily, for 25 days (days 0-24).
There were 10 mice in each group, and all the mice were administered starting on the day of grouping (Day 0) and euthanized on Day 24 after grouping (Day 24). The efficacy was evaluated according to the tumor volume at the end point of the experiment.
The abbreviation p.o. stood for oral gavage, QD stood for once daily, and BID stood for twice daily.
The relative tumor inhibition rate (TGI) was calculated by the following formula: […]
T and C were respectively the average tumor volumes in the experimental group and the vehicle control group at a specific time point.

[4] = Solid stability, 40° C./75% RH and 60° C., one week (HPLC purity, XRPD); assay type: physicochemical
Protocol: Appropriate amounts of Compound A and p-toluenesulfonate of Compound A (Sample 5, crystal form I) were respectively placed in 40° C./75% RH and 60° C. environments for one week to determine solid stability. At days 0 and 7, HPLC purity analysis and solid XRPD determination were carried out, and some of the results were as shown in Table 7.

[5] = biological target: PI3Kβ (p110β) (Homo sapiens, UniProt P42338); assay: ADP-Glo kinase inhibition, PI3Kβ; conditions: read-out: IC50 PI3Kβ Biochemical
Protocol: (§1) In Example 7, the inhibitory effects of Sample 6 prepared in Example 6 above on kinases PI3Kα, PI3Kβ, PI3Kγ and PI3Kδ were tested.
(§2) The kinases used in the experiment were respectively purchased from: • PI3Kα (p110α/p85α), purchased from Invitrogen, under Cat. No. PV4788; • PI3Kβ (p110β), purchased from eurofins, under Cat. No. 14-603M; • PI3Kδ (p110δ/p85a), purchased from Invitrogen, under Cat. No. PV6452; and • PI3Kγ (p110γ), purchased from Invitrogen, under Cat. No. PR8641C. • Firstly, a 1× kinase buffer solution was prepared, which comprised: • 50 mM HEPES, pH 7.5 • 3 mM MgCl2 • 1 mM EGTA • 100 mM NaCl • 0.03% CHAPS • 2 mM DTT
(§3) On kinases PI3Kα, PI3Kβ and PI3Kγ, the final detection concentration of the compound was 10 μM. 100× concentration was prepared, i.e., 1000 μM. 90 μL of 100% DMSO was added to the second well in row A on a 96-well plate, 10 μL of a 10 mM compound solution was then added, and 3-fold serial dilution was made to obtain a total of 10 concentrations.
(§4) 50 μL of 100% DMSO was transferred to two empty wells as Max well and Min well, respectively.
(§5) 50 nL of the compound was transferred into a 384-well plate using ECHO550.
(§6) Preparation of 2× kinase solution: the kinase was added to a 1× kinase buffer to prepare a 2× enzyme solution. […]
(§7) Finally, the chemiluminescence values were read from Envision 2104 Multi-label Reader and subjected to curve fitting, and IC50 was calculated.

[6] = biological target: T2, PI3Kα (p110α/p85α) (Homo sapiens, UniProt P42336); assay: ADP-Glo kinase inhibition, PI3Kα; conditions: read-out: IC50 PI3Kα Biochemical
T2 construct: purchased Invitrogen PV4788
Protocol: as §1, §2, §3, §4, §5, §6, §7

T2 sequence (P42336 whole entry): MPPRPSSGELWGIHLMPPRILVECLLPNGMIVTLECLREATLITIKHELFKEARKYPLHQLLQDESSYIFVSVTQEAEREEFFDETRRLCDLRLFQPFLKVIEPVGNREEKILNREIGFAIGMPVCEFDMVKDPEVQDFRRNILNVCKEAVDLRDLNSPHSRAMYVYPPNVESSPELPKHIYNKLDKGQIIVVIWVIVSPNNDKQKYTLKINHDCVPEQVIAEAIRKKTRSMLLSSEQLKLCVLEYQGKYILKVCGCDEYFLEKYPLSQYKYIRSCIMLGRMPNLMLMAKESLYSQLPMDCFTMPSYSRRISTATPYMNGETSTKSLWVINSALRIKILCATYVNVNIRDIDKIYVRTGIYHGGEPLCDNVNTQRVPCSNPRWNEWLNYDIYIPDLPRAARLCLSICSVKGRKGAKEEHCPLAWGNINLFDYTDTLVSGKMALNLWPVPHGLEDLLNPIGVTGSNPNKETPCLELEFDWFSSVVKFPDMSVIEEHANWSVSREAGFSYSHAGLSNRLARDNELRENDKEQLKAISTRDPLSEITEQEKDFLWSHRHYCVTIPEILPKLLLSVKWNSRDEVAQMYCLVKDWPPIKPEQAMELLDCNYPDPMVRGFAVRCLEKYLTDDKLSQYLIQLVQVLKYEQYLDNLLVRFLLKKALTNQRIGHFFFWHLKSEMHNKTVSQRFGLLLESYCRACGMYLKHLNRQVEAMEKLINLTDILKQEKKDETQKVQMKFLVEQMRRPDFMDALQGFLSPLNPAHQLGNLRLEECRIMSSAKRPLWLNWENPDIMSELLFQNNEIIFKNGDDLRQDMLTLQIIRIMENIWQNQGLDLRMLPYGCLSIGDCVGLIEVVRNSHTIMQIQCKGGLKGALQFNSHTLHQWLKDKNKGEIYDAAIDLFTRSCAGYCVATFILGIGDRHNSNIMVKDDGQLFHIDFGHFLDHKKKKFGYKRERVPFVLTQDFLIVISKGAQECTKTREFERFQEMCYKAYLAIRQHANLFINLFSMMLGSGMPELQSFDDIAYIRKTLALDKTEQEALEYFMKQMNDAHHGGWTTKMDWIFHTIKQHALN
T2 sequence (P27986 whole entry partner): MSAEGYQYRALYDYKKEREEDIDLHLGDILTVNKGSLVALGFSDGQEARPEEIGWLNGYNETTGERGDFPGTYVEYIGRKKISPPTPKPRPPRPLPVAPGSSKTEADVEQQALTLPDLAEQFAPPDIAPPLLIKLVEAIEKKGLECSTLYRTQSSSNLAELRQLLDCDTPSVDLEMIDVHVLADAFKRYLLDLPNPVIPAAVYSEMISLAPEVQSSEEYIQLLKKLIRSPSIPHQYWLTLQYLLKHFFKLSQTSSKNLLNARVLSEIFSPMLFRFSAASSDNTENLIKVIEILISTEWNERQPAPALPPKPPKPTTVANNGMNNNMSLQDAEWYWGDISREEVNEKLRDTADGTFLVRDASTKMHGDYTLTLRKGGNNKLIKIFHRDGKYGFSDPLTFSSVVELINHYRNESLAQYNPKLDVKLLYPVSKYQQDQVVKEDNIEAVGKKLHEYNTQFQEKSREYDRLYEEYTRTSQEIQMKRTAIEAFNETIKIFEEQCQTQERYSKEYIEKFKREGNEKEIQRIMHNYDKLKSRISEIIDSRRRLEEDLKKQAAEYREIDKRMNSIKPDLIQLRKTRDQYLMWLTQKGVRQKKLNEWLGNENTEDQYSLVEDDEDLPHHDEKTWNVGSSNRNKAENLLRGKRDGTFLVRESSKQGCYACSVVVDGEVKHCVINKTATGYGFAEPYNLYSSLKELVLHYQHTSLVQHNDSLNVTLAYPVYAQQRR
Chain of PI3Kβ (p110β) (P42338 whole entry): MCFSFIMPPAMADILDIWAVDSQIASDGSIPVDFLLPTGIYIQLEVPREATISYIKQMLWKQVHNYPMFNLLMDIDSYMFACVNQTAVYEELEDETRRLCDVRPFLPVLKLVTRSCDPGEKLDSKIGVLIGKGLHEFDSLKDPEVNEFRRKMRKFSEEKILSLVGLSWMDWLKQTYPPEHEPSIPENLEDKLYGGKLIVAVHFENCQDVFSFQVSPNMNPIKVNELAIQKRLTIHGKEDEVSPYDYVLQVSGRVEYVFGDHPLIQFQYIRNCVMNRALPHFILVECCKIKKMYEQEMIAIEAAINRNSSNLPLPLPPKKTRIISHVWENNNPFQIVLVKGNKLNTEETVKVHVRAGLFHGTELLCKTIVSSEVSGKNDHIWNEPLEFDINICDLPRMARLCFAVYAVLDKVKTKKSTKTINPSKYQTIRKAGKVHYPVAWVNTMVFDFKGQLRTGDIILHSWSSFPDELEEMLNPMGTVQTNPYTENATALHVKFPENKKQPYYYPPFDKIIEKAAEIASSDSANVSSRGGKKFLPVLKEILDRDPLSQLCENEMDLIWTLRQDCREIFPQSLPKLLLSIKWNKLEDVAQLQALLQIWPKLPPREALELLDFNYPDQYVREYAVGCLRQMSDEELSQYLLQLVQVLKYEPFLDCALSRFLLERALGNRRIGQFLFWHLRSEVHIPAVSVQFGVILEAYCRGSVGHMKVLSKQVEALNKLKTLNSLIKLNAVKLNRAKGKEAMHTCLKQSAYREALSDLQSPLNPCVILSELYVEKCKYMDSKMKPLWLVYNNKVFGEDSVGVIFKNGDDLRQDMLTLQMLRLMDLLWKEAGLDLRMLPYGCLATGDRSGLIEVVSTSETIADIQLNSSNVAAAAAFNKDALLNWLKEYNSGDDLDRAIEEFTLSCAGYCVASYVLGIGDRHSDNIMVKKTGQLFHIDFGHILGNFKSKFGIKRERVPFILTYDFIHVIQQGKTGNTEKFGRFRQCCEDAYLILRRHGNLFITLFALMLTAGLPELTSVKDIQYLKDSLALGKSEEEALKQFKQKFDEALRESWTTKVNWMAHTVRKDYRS
T1 sequence (P42337 whole entry): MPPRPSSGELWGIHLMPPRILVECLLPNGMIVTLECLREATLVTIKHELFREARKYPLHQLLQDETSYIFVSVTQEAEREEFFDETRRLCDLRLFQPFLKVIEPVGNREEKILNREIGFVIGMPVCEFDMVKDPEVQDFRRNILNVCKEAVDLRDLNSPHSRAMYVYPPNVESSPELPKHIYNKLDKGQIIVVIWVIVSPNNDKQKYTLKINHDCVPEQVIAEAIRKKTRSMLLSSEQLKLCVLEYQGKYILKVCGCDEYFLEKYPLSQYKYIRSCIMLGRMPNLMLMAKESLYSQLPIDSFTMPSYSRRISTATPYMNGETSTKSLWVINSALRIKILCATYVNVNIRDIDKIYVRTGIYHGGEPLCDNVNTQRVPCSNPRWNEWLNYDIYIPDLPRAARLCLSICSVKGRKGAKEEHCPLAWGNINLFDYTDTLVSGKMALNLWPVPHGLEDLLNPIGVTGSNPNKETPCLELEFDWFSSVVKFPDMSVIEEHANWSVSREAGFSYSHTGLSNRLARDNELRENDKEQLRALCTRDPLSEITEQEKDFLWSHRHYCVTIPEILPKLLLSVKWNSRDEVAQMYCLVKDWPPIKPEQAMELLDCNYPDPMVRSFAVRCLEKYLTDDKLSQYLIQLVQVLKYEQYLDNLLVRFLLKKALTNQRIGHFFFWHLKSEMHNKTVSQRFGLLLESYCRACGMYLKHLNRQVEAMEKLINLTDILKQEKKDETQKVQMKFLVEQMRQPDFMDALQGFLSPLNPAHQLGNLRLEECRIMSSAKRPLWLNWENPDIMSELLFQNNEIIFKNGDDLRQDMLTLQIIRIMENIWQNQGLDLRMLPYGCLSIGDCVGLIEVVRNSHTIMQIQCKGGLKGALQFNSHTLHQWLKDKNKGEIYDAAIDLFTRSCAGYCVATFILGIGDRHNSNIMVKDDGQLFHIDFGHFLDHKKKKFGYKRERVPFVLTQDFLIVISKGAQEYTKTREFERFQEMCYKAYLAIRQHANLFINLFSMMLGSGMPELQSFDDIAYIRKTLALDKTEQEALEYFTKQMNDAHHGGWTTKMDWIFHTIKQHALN
T1 sequence (P26450 whole entry partner): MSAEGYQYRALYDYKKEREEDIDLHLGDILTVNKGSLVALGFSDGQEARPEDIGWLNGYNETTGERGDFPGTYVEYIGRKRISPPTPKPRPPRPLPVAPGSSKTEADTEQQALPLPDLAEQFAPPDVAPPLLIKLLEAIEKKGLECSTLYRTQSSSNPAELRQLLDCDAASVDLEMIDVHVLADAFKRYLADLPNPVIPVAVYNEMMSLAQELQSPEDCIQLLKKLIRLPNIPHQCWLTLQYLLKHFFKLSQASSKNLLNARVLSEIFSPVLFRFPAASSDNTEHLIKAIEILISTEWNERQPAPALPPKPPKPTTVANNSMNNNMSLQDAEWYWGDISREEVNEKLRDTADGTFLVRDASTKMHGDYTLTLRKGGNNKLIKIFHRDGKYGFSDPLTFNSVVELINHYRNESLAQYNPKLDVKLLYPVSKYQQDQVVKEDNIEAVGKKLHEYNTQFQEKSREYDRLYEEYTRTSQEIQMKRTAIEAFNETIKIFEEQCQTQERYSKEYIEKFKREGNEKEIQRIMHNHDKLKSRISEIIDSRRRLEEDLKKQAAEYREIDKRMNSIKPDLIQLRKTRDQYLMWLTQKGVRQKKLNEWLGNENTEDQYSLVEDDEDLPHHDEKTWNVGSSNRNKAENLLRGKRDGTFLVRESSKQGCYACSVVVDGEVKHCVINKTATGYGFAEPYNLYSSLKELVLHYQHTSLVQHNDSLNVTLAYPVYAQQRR

IC50 [1]: 3520 nM | physical and chemical stability (purity and crystal form) ([4]; 40° C./75% RH and 60° C., 7 days): no change in purity and crystal form | Purity (peak area %) Average - 40° C./75% RH - 7 d ([4]; solid, 40° C./75% RH, 7 d, average, listed as Sample 5): 99.69 peak area % | Purity (peak area %) 40° C./75% RH - 7 d ([4]; solid, 40° C./75% RH, 7 d, single determinations, listed as Sample 5): 99.68 peak area % and 99.69 peak area % | Purity (peak area %) Average - 60° C. - 7 d ([4]; solid, 60° C., 7 d, average, listed as Sample 5): 99.65 peak area % | Purity (peak area %) 60° C. - 7 d ([4]; solid, 60° C., 7 d, single determinations, listed as Sample 5): 99.56 peak area % and 99.74 peak area % | Purity (peak area %) Average - 0 d ([4]; solid, day 0, average, listed as Sample 5): 99.48 peak area % | Purity (peak area %) 0 d ([4]; solid, day 0, single determinations, listed as Sample 5): 99.46 peak area % and 99.49 peak area % | IC50 [5]: 44 nM | IC50 [6]: 117 nM
SMILES: C[C@H](Nc1nc(N)nc(N)c1C#N)c1cc2ccc(F)cc2nc1-c1ccccn1 [p-toluenesulfonate of Compound A]
crystal form after high humidity (XRPD) [2]: crystal form of the sample did not change | average tumor volume ([3]; 30 mg/kg p.o. QD): 984.45 mm^3 | relative tumor inhibition rate (TGI) ([3]; 30 mg/kg p.o. QD): 54% | average tumor volume ([3]; 100 mg/kg p.o. QD): 549.05 mm^3 | relative tumor inhibition rate (TGI) ([3]; 100 mg/kg p.o. QD): 75%
